According to PMC5369532, “NMR-filtered virtual screening leads to non-metal chelating metallo-β-lactamase inhibitors” (Chemical Science, 2016):
pIC50: −log10 of the molar value.

Key:
NDM-1 = target: T1, NDM-1 (Klebsiella pneumoniae, UniProt C7C422); test: NDM-1 inhibition, selectivity profile (FC5 substrate); format: biochemical; conditions: Fig. 4
T1 construct: made in house; host or cells: Escherichia coli
Procedure: (§1) Except where noted, recombinant forms of NDM-1, VIM-2, SPM-1, IMP-1, and BcII MBLs were produced in Escherichia coli and assays were carried out as described previously10. The IC50 values of all the compounds for VIM-2 were determined using […]
(§2) the FC-5 based assay10. […]
(§3) concentrations (0 μM, 1 μM, and 100 μM, see Fig. S8). The selectivity profiles of compounds of interest against other B1 MBLs including VIM-511, VIM-110, NDM-1, SPM-1, and BcII, and TEM-112 (class A SBL) were determined using the same method as described above. The inhibitory activities of these compounds against CphA (B2 […]
(§4) Enzymea Categorya [E]b, (nM) Substrate [Substrate], (μM) […]
(§5) CphA Class B2 MBL 2.5 Meropenem 125 […]
(§6) TEM-1 Class A SBL 2.5 FC5 5 a MBL: Metallo β-lactamase; SBL: serine β-lactamase; VIM, Verona Integron–encoded MBL; IMP, Imipenemase; NDM, New Delhi MBL; TEM-1: Temomeira-type 1 […]
(§7) b The enzyme concentrations of the purified proteins were determined by measuring Abs@280nm using a NanoDrop (ThermoFisher) spectrometer and calculated molar extinction coefficient for each sample; concentrations of diluted solutions used in the assay were calculated from the original concentration. […]
(§8) negative controls. These were tested in same assay conditions but at 2mM instead of 100uM compound concentration.

SPM-1 = SPM-1 (Pseudomonas aeruginosa, UniProt Q8G9Q0); test: SPM-1 inhibition, selectivity profile (FC5 substrate); format: biochemical; conditions: Fig. 4
Procedure: as §1, §2, §3, §4, §5, §6, §7, §8

BcII = target: T2, BcII (Bacillus cereus, UniProt P04190); test: BcII inhibition, selectivity profile (FC5 substrate); format: biochemical; conditions: Fig. 4
T2 construct: made in house; host or cells: Escherichia coli
Procedure: as §1, §2, §3, §4, §5, §6, §7, §8

CphA = CphA (Aeromonas hydrophila, UniProt P26918); test: biochemical
Procedure: as §1
(§9) concentrations (0 μM, 1 μM, and 100 μM, see Fig. S8). The selectivity profiles of […]
(§10) as described above. The inhibitory activities of these compounds against CphA (B2 MBL)13 and L1 (B3 MBL)14 were determined using meropenem and nitrocefin, […]
(§11) at 100 μM. […]
(§12) MBL; IMP, Imipenemase; NDM, New Delhi MBL; TEM-1: Temomeira-type 1 […]
as §7
(§13) negative controls. These were tested in same assay conditions but at 2mM instead of 100uM compound concentration. […]

L1 = L1 (Stenotrophomonas maltophilia, UniProt P52700); test: biochemical
Procedure: as §1, §9, §10, §11, §12, §7, §13

TEM-1 = TEM-1 (Escherichia coli, UniProt P62593); test: TEM-1 inhibition, selectivity profile (FC5 substrate); format: biochemical; conditions: Fig. 4
VIM-2 = target: T3, VIM-2 (Escherichia coli, UniProt Q5U7L7); test: biochemical; format: biochemical
T3 construct: made in house; host or cells: Escherichia coli
Procedure: as §1, §9
as described above. The inhibitory activities of these compounds against CphA (B2 […]
as §12, §7, §13

VIM-1 = VIM-1 (Pseudomonas aeruginosa, UniProt A0A0F7KYQ8); test: biochemical; conditions: n ≥ 3
apo-VIM-2 = apo-VIM-2 (Escherichia coli, UniProt Q5U7L7); format: binding; conditions: 50 μM apo enzyme, 50 μM compound, 50 mM Tris-D11 pH 7.5
Procedure: (§14) Except where noted, recombinant forms of NDM-1, VIM-2, SPM-1, IMP-1, and BcII MBLs were produced in Escherichia coli and assays were carried out as described […]
(§15) previously10. […]
(§16) Nuclear Magnetic Resonance (NMR) spectra were recorded using a Bruker AVIII 600 MHz NMR spectrometer equipped with a BB-19F/1H Prodigy N2 cryoprobe using 5 mm diameter NMR tubes (Norell). Typical experimental parameters for Carr-Purcell-Meiboom-Gill (CPMG) NMR spectroscopy were: total echo time, 40 ms; […]
(§17) The PROJECT-CPMG sequence
(§18) (90°x−[τ−180°y−τ−90°y−τ−180°y−τ]n−acq) was applied. 15 Water suppression was achieved by pre-saturation. Data were processed with Bruker 3.1 software. Prior to […]
(§19) Fourier transformation, data were multiplied with an exponential function with 0.5 Hz […]
(§20) line broadening. […]

di-Zn(II) VIM-2 = target: T4, di-Zn(II) VIM-2 (Escherichia coli, UniProt Q5U7L7); format: binding; conditions: 50 μM enzyme, 50 μM Zn(II), 50 μM compound, 50 mM Tris-D11 pH 7.5
T4 construct: made in house
Procedure: as §14, §15, §16, §17, §18, §19, §20

SPM-1, sequence (Q8G9Q0 entry or part of it): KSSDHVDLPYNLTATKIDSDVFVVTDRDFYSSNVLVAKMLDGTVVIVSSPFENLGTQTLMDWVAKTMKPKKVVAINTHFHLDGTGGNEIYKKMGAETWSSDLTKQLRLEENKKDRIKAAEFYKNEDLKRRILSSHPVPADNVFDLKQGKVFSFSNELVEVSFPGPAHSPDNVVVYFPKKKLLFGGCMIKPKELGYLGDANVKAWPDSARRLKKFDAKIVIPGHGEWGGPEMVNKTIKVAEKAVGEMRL
T1 sequence (C7C422 29-270, looked up, species assumed): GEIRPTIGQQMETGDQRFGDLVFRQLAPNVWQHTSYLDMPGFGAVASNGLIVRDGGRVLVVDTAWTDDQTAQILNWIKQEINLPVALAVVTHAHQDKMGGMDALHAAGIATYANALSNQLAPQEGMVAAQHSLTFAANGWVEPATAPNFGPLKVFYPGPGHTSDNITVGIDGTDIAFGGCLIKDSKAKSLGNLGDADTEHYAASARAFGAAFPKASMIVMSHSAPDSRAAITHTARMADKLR
TEM-1, sequence (P62593 24-286 limits assumed): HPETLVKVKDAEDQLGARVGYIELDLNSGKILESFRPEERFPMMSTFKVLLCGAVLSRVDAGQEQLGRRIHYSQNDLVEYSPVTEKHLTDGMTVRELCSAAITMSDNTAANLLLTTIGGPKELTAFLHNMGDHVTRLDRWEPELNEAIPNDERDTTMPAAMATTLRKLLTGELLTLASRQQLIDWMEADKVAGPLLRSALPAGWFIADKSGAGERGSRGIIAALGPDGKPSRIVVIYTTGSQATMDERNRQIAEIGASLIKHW
L1, sequence (P52700 34-290): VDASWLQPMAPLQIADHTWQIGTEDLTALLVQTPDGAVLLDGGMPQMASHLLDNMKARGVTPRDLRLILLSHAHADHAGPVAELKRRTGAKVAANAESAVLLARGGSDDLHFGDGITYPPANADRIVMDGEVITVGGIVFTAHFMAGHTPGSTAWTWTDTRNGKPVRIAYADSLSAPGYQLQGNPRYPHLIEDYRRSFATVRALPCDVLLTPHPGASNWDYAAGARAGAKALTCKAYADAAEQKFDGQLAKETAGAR
CphA, sequence (P26918 28-254): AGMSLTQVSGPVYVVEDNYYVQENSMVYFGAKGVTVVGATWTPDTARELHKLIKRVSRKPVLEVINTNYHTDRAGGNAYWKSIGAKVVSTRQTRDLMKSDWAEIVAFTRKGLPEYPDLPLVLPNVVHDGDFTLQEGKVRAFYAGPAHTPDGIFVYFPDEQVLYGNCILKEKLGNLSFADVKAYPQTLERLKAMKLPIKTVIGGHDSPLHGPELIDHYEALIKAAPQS
T2 sequence (P04190 31-257): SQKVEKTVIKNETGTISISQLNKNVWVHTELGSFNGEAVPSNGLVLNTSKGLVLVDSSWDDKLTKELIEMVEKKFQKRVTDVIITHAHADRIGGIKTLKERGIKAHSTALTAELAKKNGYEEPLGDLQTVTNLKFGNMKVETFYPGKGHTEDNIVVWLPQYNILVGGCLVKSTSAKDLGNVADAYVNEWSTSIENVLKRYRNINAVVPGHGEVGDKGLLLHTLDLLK

In the case of `O=C(O)c1cccc2c1C(=O)N(Cc1c(F)cccc1Cl)C2` [Compound 16], the pIC50 (NDM-1) was less than 3.40, the pIC50 (SPM-1) was less than 3.40 and the pIC50 (BcII) was less than 3.40. The pIC50 (CphA) was less than 3.40, the pIC50 (L1) was less than 3.40 and the “inhibition of class A serine β-lactamase TEM-1 (in words)” value (TEM-1) was “no inhibition was observed”.
For `O=C(O)c1cccc2c1C(=O)N(c1cccc(C(F)(F)F)c1)C2` [Compound 17], the “differences between the inhibitory activity with or without excess Zn(II)” value (VIM-2; 0 μM, 1 μM and 100 μM Zn(II)) was “no obvious differences”, the pIC50 (VIM-2; FC-5 based assay, n ≥ 3, read-out: IC50 (VIM-2)) was 4.48 and the pIC50 (VIM-1) was less than 3.40. The pIC50 (NDM-1) was less than 3.40, the pIC50 (SPM-1) was less than 3.40 and the pIC50 (BcII) was less than 3.40. The pIC50 (CphA) was less than 3.40, the pIC50 (L1) was less than 3.40 and the “inhibition of class A serine β-lactamase TEM-1 (in words)” value (TEM-1) was “no inhibition was observed”. The “binding to apo-VIM-2 by 1H CPMG NMR” value (apo-VIM-2) was “binding and bind” and the “binding to di-Zn(II) VIM-2 by 1H CPMG NMR” value (di-Zn(II) VIM-2) was “binding and bind”.
